Measured values taken from patent US8829014B2, “Thiazole and thiophene analogues, and their use in treating autoimmune diseases and cancers” (Board of Supervisors of Louisiana State University and …, priority 2006, dated 2014).
Marks after values point to notes of the source that are not given here.

What was measured:
[1] = test system: NF-κB; experiment: NF-κB inhibitor screen: basal NF-κB-dependent luciferase expression in HEK/NF-κB cell line; format: cell-based; details: 1 uM; determined as described in Example 398; read-out: NFkB inhibition @ 1 uM
Summary of the method: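 Basal NF-κB-driven luciferase (six-copy element, stable HEK293 line) was read with Brite-Glo. Compound was added in 0.3% DMSO 24 h post-plating, initially at 1.0 μM and then across 10–3300 nM in six steps, in triplicate wells. Signals were expressed relative to DMSO or to the lowest concentration tested.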

[2] = test system: AP-1; experiment: AP-1 inhibitor screen: basal AP-1-dependent luciferase expression in HEK/AP-1 cell line; format: cell-based; details: AP1; 1 uM; determined as described in Example 398
Summary of the method: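 Compound effects on unstimulated reporter signal were tested: 1.0 μM compound (0.3% DMSO) for 48 hr on HEK cells bearing an AP-1 (TGACTAA ×3)-luciferase construct, seeded 24 hr earlier. Triplicate luminescence means were normalized to DMSO-only wells; dose-response experiments were repeated 2–4 times.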

[3] = test system: NF-κB; experiment: TNF-α-induced NF-κB-dependent luciferase expression in HEK cells; format: cell-based; design: NF-κB % inhibition: concentration or dose not given beside the values; details: TNF-α-induced; compound added 1 h before inducer, luciferase 24 h later; normalized to DMSO vehicle
[4] = test system: AP-1; experiment: PMA-induced AP-1 luciferase expression in HEK cells; format: cell-based; details: PMA-induced; compound added 1 h before inducer, luciferase 24 h later; normalized to DMSO vehicle
[5] = test system: vascular smooth muscle cells (VSMC); experiment: LDH release cytotoxicity in VSMC; format: cell-based; details: VSMC, 10 μM, 48 h, relative to vehicle
Protocol: (§1) Additional compounds have also been tested for their ability to inhibit both TNF-α-induced NF-κB—expression and PMA-induced AP-1 expression. In both tests, the compound was added for 1 h, then the appropriate inducer was added, and luciferase activity was monitored 24 h later. Values were then normalized to the vehicle control, DMSO. Following the initial luciferase screens, studies were conducted to assess the cytotoxicity of the compounds in normal cells such as VSMC, HUVEC, or HPT cells. Human umbilical vein endothelial cells (HUVEC) represent the normal endothelium, vascular smooth muscle cells (VSMC) were represented by cells from the adult rat aorta, and human proximal tubule (HPT) cells represent the normal proximal tubule in vivo. These cells were grown to near confluency in multi-well plates, and were then treated for 48 h with either vehicle (0.1% DMSO) or 10 μM of each drug candidate. Following treatment, the media from the VSMC and HUVEC incubations were removed, and the amount of lactate dehydrogenase (LDH) released into the medium was determined with a commercial kit. LDH is normally confined to the cytosol, and its release represents “leakiness” of the plasma membrane. LDH activity was expressed as % increase over vehicle-treated cells. In another assay of viability, the treated VSMC and HUVEC were removed by trypsinization and treated with trypan blue, a dye that is taken up only by dead cells. The number of both live and dead cells was counted using an automated cell viability analyzer. The % decrease in numbers of viable cells was determined. Toxicity in the treated HPT cells was determined by the ethidium homodimer (EthHD) uptake assay. EthHD is a fluorescent dye that is excluded from live cells, but is taken up by cells that have lost permeability barriers. Inside the cell, EthHD produces a strong fluorescent signal, which is proportional to the number of dead cells. Results were expressed as a % increase in cell death over vehicle-treated cells. The lead compounds were also tested in two pairs of cell lines from either the skin or prostate, one tumorigenic and one non-tumorigenic, to test for any differences in toxicity or heightened sensitivity in the tumorigenic lines. The cells were treated for 48 h with vehicle (0.1% DMSO) or 10 μM of each drug candidate. Following treatment, the viability of the cells was determined by the MTT assay. In this assay, the MTT dye is converted only in viable cells by intracellular enzymes to a colorimetric product that is quantitated by a microplate reader.
(§2) For the results in Table 13, cells were grown to near confluency in multi-well plates, then treated for 48 h with either vehicle (0.1% DMSO) or 10 μM of each drug candidate. Following treatment, the media from the VSMC and HUVEC incubations were removed, and the amount of lactate dehydrogenase (LDH) released into the medium was determined with a commercial kit and expressed as a % increase over vehicle-treated cells. HPT toxicity was determined by the ethidium homodimer (EthHD) uptake assay. Inside the cell, EthHD produces a strong fluorescent signal, which is proportional to the amount of cell death, expressed as a % increase in cell death over vehicle-treated cells. The lead compounds were also tested in two pairs of cell lines from the skin or prostate, one tumorigenic and one non-tumorigenic, to test for differing toxicity or heightened sensitivity in the tumorigenic lines. The cells were treated for 48 h with vehicle (0.1% DMSO) or 10 μM of each drug candidate, and the viability of the cells was determined by the MTT assay, expressed as a % decrease in viability compared to vehicle-treated cells. The in vivo inflammation model measured the % inhibition of rat paw edema induced by carageenan injection.

[6] = test system: Human umbilical vein endothelial cells (HUVEC); experiment: LDH release cytotoxicity in HUVEC; format: cell-based; details: HUVEC, 10 μM, 48 h, relative to vehicle
Protocol: as §1, §2

[7] = test system: vascular smooth muscle cells (VSMC); experiment: Trypan blue viability count in VSMC; format: cell-based; details: VSMC, 10 μM, 48 h, relative to vehicle
Protocol: as §1

[8] = test system: Human umbilical vein endothelial cells (HUVEC); experiment: Trypan blue viability count in HUVEC; format: cell-based; details: HUVEC, 10 μM, 48 h, relative to vehicle
Protocol: as §1

[9] = test system: human proximal tubule (HPT) cells; experiment: Ethidium homodimer (EthHD) uptake toxicity assay in HPT cells; format: cell-based; details: 10 μM, 48 h, relative to vehicle
Protocol: as §1, §2

[10] = test system: cell lines from the skin, one tumorigenic and one non-tumorigenic; experiment: MTT viability in skin cell line pair, tumorigenic and non-tumorigenic; format: cell-based
Protocol: as §1, §2

Row | SMILES | inhibition at 1 µM [1] | inhibition at 1 µM [2] | melting point | NF-κB % inhibition [3] | AP-1 % inhibition [4] | LDH release % Increase VSMC [5] | LDH release % Increase HUVEC [6] | Viable Cells % Decrease VSMC [7] | Viable Cells % Decrease HUVEC [8] | Cell Death (EthHD) % Increase HPT [9] | Viability (MTT) % Decrease HaCaT [10] | Viability (MTT) % Decrease SRB12-p9 [10]
1 | CC(=O)c1ccc(-n2c(-c3sc(Nc4ccccc4)nc3-c3ccccc3)nc3ccccc3c2=O)cc1 [Example 267, 3-(4-acetyl-phenyl)-2-(4-phenyl-2-phenylamino-thiazol-5-yl)-3H-quinazolin-4-one] | 43% | 19% | 223 to 225 °C | – | – | – | – | – | – | – | – | –
2 | CC(=O)c1ccc(-n2c(-c3sc(NC(=O)c4ccccc4)nc3-c3ccccc3)nc3ccccc3c2=O)cc1 [Example 268, N-[5-(4-Oxo-3-(4-acetyl-phenyl)-3,4-dihydro-quinazolin-2-yl)-4-phenyl-thiazole-2-yl]benzamide] | 18% | 44% | 250 to 252 °C | – | – | – | – | – | – | – | – | –
3 | CC(=O)c1ccc(-n2c(-c3sc(NC(=O)c4ccc(C)cc4)nc3-c3ccccc3)nc3ccccc3c2=O)cc1 [Example 269, 4-Methyl-N-[5-(4-oxo-3-(4-acetyl-phenyl)-3,4-dihydroquinazolin-2-yl)-4-phenyl-thiazol-2-yl]-benzamide] | 27% | 1% | 266 to 267 °C | – | – | – | – | – | – | – | – | –
4 | CNc1nc(C)c(-c2nc3ccccc3c(=O)n2-c2ccccc2C)s1 [PMCR19] | – | – | – | 18% | 67** % | 4% | 14% | 29# % | 20% | 63# % | 6% | 21%
5 | Cc1ccccc1-n1c(-c2sc(Nc3ccccc3)nc2C)nc2ccccc2c1=O [PMCR20] | – | – | – | 21% | 73** % | 9% | 17% | 34# % | 28# % | 109# % | 6% | 14%
6 | CCOC(=O)Nc1nc(-c2ccccc2)c(-c2nc3ccccc3c(=O)n2-c2ccccc2C)s1 [PMCR25] | – | – | – | 23% | 52** % | 78# % | 59# % | 56# % | 40# % | 34# % | −5% | 28# %
7 | Cc1cccc(-n2c(-c3sc(NC(=O)c4ccccc4)nc3-c3ccccc3)nc3ccccc3c2=O)c1 [PMCR45] | – | – | – | 42% | 63** % | 116# % | 123# % | 67# % | 41# % | 49# % | 19% | 20%
8 | CNc1nc(-c2ccccc2)c(-c2nc3ccccc3c(=O)n2-c2ccccc2OC)s1 [PMCR75] | – | – | – | 61** % | 90** % | 31# % | 15% | 70# % | 41# % | 4% | 46# % | 61# %
9 | Cc1nc(Nc2ccc(Cl)cc2)sc1-c1nc2ccccc2c(=O)n1-c1ccccc1Cl [PMCR120] | – | – | – | 60** % | 27% | 11% | 6% | 13% | 16% | 17% | −4% | 85# %
10 | COC(=O)Nc1nc(-c2ccccc2)c(-c2nc3ccccc3c(=O)n2-c2ccccc2Cl)s1 [PMCR122] | – | – | – | 55** % | 66** % | 20% | 37# % | 45# % | 32# % | 210# % | 6% | 11%
11 | Cc1ccccc1-n1c(-c2cc(-c3ccncc3)c(N3CCOCC3)s2)nc2ccccc2c1=O [PMCR188] | – | – | – | 53% | 0% | 148# % | 160# % | 92# % | 60# % | 250# % | 0% | 0%
12 | COc1ccccc1-n1c(-c2cc(-c3ccc(S(C)(=O)=O)cc3)c(N3CCOCC3)s2)nc2ccccc2c1=O [PMCR204] | – | – | – | 55** % | 33% | 164# % | 214# % | 70# % | 65# % | 207# % | −8% | 12%
